SMILES strings stand for the structures.

What all share (design): species or system Bacteria
Assay [1] can be described thus: Inhibition of bacterial VIM-2 (27 to 266 residues) expressed in Escherichia coli Transetta (DE3) using FC-5 as substrate preincubated with enzyme for 10 mins followed by substrate addition by fluorescence based analysis.
A short description of assay [2]: Inhibition of bacterial recombinant full length C-terminal-TEV-His6-tagged VIM-1 expressed in Escherichia coli Transetta using FC-5 as substrate preincubated with enzyme for 10 mins followed by substrate addition by fluorescence based analysis.
The nature of assay [3]: Inhibition of bacterial recombinant full length N-terminal-TEV-His6-tagged VIM-5 expressed in Escherichia coli Transetta using FC-5 as substrate preincubated with enzyme for 10 mins followed by substrate addition by fluorescence based analysis.
Assay [4] can be described thus: Inhibition of bacterial NDM-1 (1 to 270 residues) expressed in Escherichia coli Transetta (DE3) using FC-5 as substrate preincubated with enzyme for 10 mins followed by substrate addition by fluorescence based analysis.
Assay [5] is described as follows: Inhibition of bacterial IMP-1 (1 to 246 residues) expressed in Escherichia coli Transetta (DE3) using FC-5 as substrate preincubated with enzyme for 10 mins followed by substrate addition by fluorescence based analysis.

Take `O=C(O)c1nccn1Cc1cccs1`: the IC50 in assay [1] is 2.67 µM; in assay [2] it was 50 µM; in assay [3], 28.6 µM; in assay [4] it was > 300 µM; in assay [5], 100 µM.
For the molecule `O=C(O)c1nc(-c2ccccc2)cn1Cc1ccccc1`, the half-maximal inhibitory concentration (IC50) in assay [1] is 79.1 µM; in assay [2], > 300 µM; in assay [3] it was 48.3 µM; in assay [4], > 300 µM; in assay [5] it was 9.29 µM.
On to `CS(=O)(=O)Cn1ccnc1C(=O)O`, for which the IC50 was 33.6 µM in assay [1]; > 300 µM in assay [2]; 249 µM in assay [3]; > 300 µM in assay [4]; > 300 µM in assay [5].
For the molecule `C[S+]([O-])Cn1ccnc1C(=O)O` (stereo not given), the concentration for half-maximal inhibition (IC50) in assay [1] was 64.1 µM; in assay [2], > 300 µM; in assay [3], > 300 µM; in assay [4], > 300 µM; in assay [5], > 300 µM.
For `Nn1ccnc1C(=O)O`, the half-inhibitory concentration (IC50) in assay [1] is > 300 µM; in assay [2], > 300 µM; in assay [3], 30.6 µM; in assay [4] it was > 300 µM; in assay [5], > 300 µM.
Take `CN(C)CCCn1ccnc1C(=O)O`: the IC50 in assay [1], in assay [2], in assay [3], in assay [4] and in assay [5] was > 300 µM in each case.
For `O=C(O)c1nccn1Cc1ccoc1`, the concentration for half-maximal inhibition (IC50) in assay [1] is 42.7 µM; in assay [2], > 300 µM; in assay [3], > 300 µM; in assay [4], > 300 µM; in assay [5], > 300 µM.
For the molecule `O=C(O)c1nc(C2CC2)cn1Cc1ccccc1`, the half-maximal inhibitory concentration (IC50) was 11.5 µM in assay [1]; > 300 µM in assay [2]; > 300 µM in assay [3]; > 300 µM in assay [4]; 17.8 µM in assay [5].
For `O=C(O)c1nccn1Cc1ccc(Cl)c(Cl)c1`, the IC50 in assay [1] worked out at 0.014 µM; in assay [2], 2.83 µM; in assay [3], 0.052 µM; in assay [4], 16.4 µM; in assay [5], 9.25 µM.
The corresponding values for `CCCn1ccnc1C(=O)O` are 2.67 µM, 15.3 µM, 18.9 µM, > 300 µM and 58.4 µM.
For `O=C(O)c1nccn1Cc1ccc(Cl)s1` the same measures were 3.23 µM, > 300 µM, 9.02 µM, 121 µM and 111 µM.
Take `COC(=O)C(C)n1ccnc1C(=O)O` (stereo not given): the half-maximal inhibitory concentration (IC50) in assay [1], in assay [2], in assay [3], in assay [4] and in assay [5] was > 300 µM in each case.
Regarding `C=CCCn1cc(C)nc1C(=O)O`, the IC50 in assay [1] was 13.7 µM; in assay [2], > 300 µM; in assay [3] it was 90.5 µM; in assay [4], > 300 µM; in assay [5] it was 4.05 µM.
On to `CCC(C)n1ccnc1C(=O)O` (stereo not given), for which the half-maximal inhibitory concentration (IC50) in assay [1] was 2.04 µM; in assay [2] it was 21.3 µM; in assay [3], 31.6 µM; in assay [4] it was > 300 µM; in assay [5], > 300 µM.
As to `CCn1ccnc1C(=O)O`, the IC50 in assay [1] is 32 µM; in assay [2] it was > 300 µM; in assay [3], > 300 µM; in assay [4], > 300 µM; in assay [5], > 300 µM.
`Cn1nnnc1SCCn1ccnc1C(=O)O`: the IC50 in assay [1] was 2.13 µM; in assay [2], 45.7 µM; in assay [3], 16.5 µM; in assay [4] it was > 300 µM; in assay [5], 160 µM.
The corresponding values for `O=C(O)c1nccn1Cc1ccc(F)c(F)c1` are 15.8 µM, > 300 µM, 14.9 µM, > 300 µM and > 300 µM.
The corresponding values for `CC(O)Cn1ccnc1C(=O)O` (stereo not given) are > 300 µM, > 300 µM, > 300 µM, > 300 µM and > 300 µM.

The IC50 is the point on the concentration scale where inhibition reaches its midpoint.

For the origin of these results see ChEMBL document CHEMBL5154646, “Structure-guided optimization of 1H-imidazole-2-carboxylic acid derivatives affording potent VIM-Type metallo-β-lactamase inhibitors” (Eur J Med Chem, 2022).
